Species: Oryctolagus cuniculus
Experiment: Inhibition of rabbit platelet aggregation induced by PAF (Platelet activating factor)
Format: functional

| SMILES | IC50 |
| --- | --- |
| CSC[C@@H]1NC(=O)[C@@H](Cc2cn(C)c3ccccc23)NC1=O | 36000 nM |
| CSC[C@H]1NC(=O)[C@H](Cc2cn(C)c3ccccc23)NC1=O | 140000 nM |
| CSC[C@@H]1N=C(C2=C(O)C=CC2)[C@H]([C@@H](C)[C@@H]2C(=O)N(C)c3ccccc32)NC1=O | 370 nM |
| COc1cc([C@H]2CC[C@H](c3cc(OC)c(OC)c(OC)c3)O2)cc(OC)c1OC | 320 nM |
| CSC[C@H]1NC(=O)[C@@H](Cc2cn(C)c3ccccc23)NC1=O | 7900 nM |
| CSC[C@@H]1NC(=O)[C@H](Cc2cn(C)c3ccccc23)NC1=O | 250000 nM |
| CSCCC1NC(=O)C(Cc2cn(C)c3ccccc23)NC1=O (stereo unspecified) | 2300 nM |

Now from value to compound:

| IC50 | SMILES |
| --- | --- |
| 700 nM | CSCC[C@H]1NC(=O)[C@@H]([C@H](C)c2cn(C)c3ccccc23)NC1=O |
| 3600 nM | CSCC[C@H]1NC(=O)[C@@H]([C@@H](C)c2cn(C)c3ccccc23)NC1=O |
| 180 nM | CSCC[C@H]1NC(=O)[C@@H]([C@H](C)c2cccc3ccccc23)NC1=O |
| 1900 nM | CSCC[C@H]1NC(=O)[C@@H]([C@@H](C)c2cccc3ccccc23)NC1=O |
